One test concerns the target T1, SHP2cat (Homo sapiens, UniProt Q06124).
T1 construct: the SHP2 catalytic domain (SHP2cat; residues 248–527); made in house
T1 sequence (Q06124 248-527): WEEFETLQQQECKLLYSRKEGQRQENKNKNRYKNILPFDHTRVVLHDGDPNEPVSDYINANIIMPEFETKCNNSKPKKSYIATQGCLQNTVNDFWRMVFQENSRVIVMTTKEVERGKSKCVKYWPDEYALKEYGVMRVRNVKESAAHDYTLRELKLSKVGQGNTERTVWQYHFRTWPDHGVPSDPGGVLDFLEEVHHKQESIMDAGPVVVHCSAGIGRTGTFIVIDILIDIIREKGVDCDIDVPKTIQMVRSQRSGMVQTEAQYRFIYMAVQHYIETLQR
The experiment in a line: OMFP fluorescence phosphatase inhibition assay, SHP2cat. The test is classed as biochemical. The conditions noted are these: substrate OMFP at Km (50 μM); read-out: IC50 against SHP2cat with OMFP. The text has this: We confirmed specific and dose-dependent binding of inhibitors to SHP2 by PTS, which monitors the thermal stability of a target protein in vitro ([40]). […] In addition, we confirmed the inhibitory activity of several furanylbenzamide inhibitors, including the top two compounds SBI-2130 and SBI-4668, in SHP2cat inhibition assays using the alternative substrate 3-O-methylfluorescein phosphate (OMFP), which features a peak fluorescence emission that is red-shifted by ∼75 nm compared with DiFMUP. The Km value of OMFP for SHP2cat was determined to be 50 μM. An OMFP fluorescence intensity–based assay was used to perform inhibitor dose–response experiments and determine IC50 values.
SHP2 inhibitors were tested at RT in a 384-well plate format standard phosphatase fluorescence intensity assay using DiFMUP (Invitrogen/Thermo Fisher Scientific) as a substrate and a total reaction volume of 25 μl. […] Fluorescence intensity was measured in kinetic mode (every minute for 7 or 10 min) using a Tecan Spark Multimode Microplate Reader (Tecan) with an excitation wavelength of 360 nm and an emission wavelength of 460 nm. The initial rates were determined from the linear progression curves of the PTP reaction. […] IC50 values were calculated from the corrected initial rates by nonlinear regression using the program GraphPad Prism, version 8 (GraphPad Software, Inc) software. […]

The subject of test [1] is U-937 AML cells (G60R oncogenic mutation in SHP2). The test can be described thus: Cell viability (CellTiter-Glo), U-937. It is filed as cell-based. The conditions noted are these: Homo sapiens, U-937, 72 h, 3 days, 0.123 to 30 μM. From the text: Oncogenic gain-of-function mutations in SHP2 drive leukemogenesis in a significant number of leukemia patients. However, because of their unique mechanism of action, the existing SHP2 allosteric inhibitors lack activity against the most common SHP2 oncogenic variants. Thus, we tested whether our inhibitors could inhibit the growth of leukemia cells expressing oncogenic SHP2 variants. […] Thus, we tested both SBI-4668 and RMC-4550 on U-937 AML cells, which harbor a G60R oncogenic mutation in SHP2. We treated cells with either SBI-4668 or RMC-4550 at various concentrations, ranging from 0.123 to 30 μM (Fig. 5A). […] We also assessed the effects of SBI-4668 and RMC-4550 on ERK1/2 activation in the SHP2 mutant U-937 cell line. […]
Viability of AML and esophageal carcinoma cells was assessed using the ATP-depletion assay CellTiter-Glo (Promega). Cells were harvested at 1 × 10^6/ml to 2 × 10^6 cells/ml with cell numbers determined by trypan blue using the Countess Cell counter (Thermo Scientific) and resuspended in culture media. […] Luminescence was read on a Tecan Spark Multimode Microplate Reader, and data were analyzed using GraphPad Prism software.

As to `O=C(Nc1ccccc1)c1cc(-c2ccc(/C=C3\Sc4ccccc4C3=O)o2)ccc1O` [SBI-4668, (Z)-2-Hydroxy-5-(5-((3-oxobenzo[b]thiophen-2(3H)-ylidene)methyl)furan-2-yl)-N-phenylbenzamide], the IC50 at SHP2cat came out at 1200 nM; in test [1], 6300 nM.

As to `Nc1ccc(NC(=O)c2cc(-c3ccc(/C=C4\Sc5ccccc5C4=O)o3)ccc2O)cc1` [SBI-2130, (Z)-N-(4-Aminophenyl)-2-hydroxy-5-(5-((3-oxobenzo[b]thiophen-2(3H)-ylidene)methyl)furan-2-yl)benzamide], the IC50 at SHP2cat was found to be 440 nM.

For orientation: IC50 means the concentration that gives 50% inhibition.

These data come from article PMC8760490, “Discovery of novel furanylbenzamide inhibitors that target oncogenic tyrosine phosphatase SHP2 in leukemia cells” (The Journal of Biological Chemistry, 2021).
